In PMC9738796, “Design of Conjugates Based on Sesquiterpene Lactones with Polyalkoxybenzenes by “Click” Chemistry to Create Potential Anticancer Agents” (Molecules, 2022):
Read-outs that look alike come from different tables or passages of the source.

Legend:
[1] = tested on: A549 (adenocarcinomic human alveolar basal epithelial cells); experiment: MTT cell viability, A549; format: cell-based; settings: 24 h
Text: (§1) In this study we used human cell culture of tumor origin—SH-SY5Y (neuroblastoma), HeLa (cervical tumor), Hep-2 (larynx carcinoma), A549 (adenocarcinomic human alveolar basal epithelial cells); and normal cell line Hek 293 (human embryonic kidneys)), provided by the Laboratory of Tumor Cell Genetics of the Scientific Research Institute of Carcinogenesis, N.N. Blokhin National Medical Research Center of Oncology, as well as the Institute of Cytology of the Russian Academy of Sciences. While being grown for experiments, cells were cultured at 37 °C in a humidified CO2 atmosphere (5%) in a nutrient medium DMEM (PanEco, Moscow, Russia) and MEM (PanEco, Moscow, Russia), containing fetal bovine serum (10% by volume) (Thermo Fisher Scientific, Paisley, UK), Glutamax (2 mM) (Gibco, Renfrewshire, UK), and penicillin-streptomycin (1% by volume) (PanEco, Moscow, Russia).
(§2) Cell viability was determined by MTT test as described earlier. Cells were seeded in a 96-well plate in the amount of 1 × 10^4 cells/200 µL and cultured at 37 °C in a humidified CO2 atmosphere (5%) in a nutrient medium DMEM (PanEco, Moscow, Russia) and MEM (PanEco, Moscow, Russia). After 24 h of incubation, […] aliquots of test compounds ([…]) dissolved in DMSO were added to the cell cultures, and cells were cultured under the same conditions for 24 h. […] DMSO also was added to the control wells in a volume of 1%.
(§3) After 24 h, […] of MTT (3-(4,5-dimethylthiazol-2-yl)-2,5-diphenyltetrazolium bromide, 5 mg/mL) was added to each well and the plates were additionally incubated for 2 h.
(§4) Using a plate analyzer (Cytation3, BioTek Instruments Inc., Winooski, VT, USA), the optical density was determined at 530 nm. The concentration value causing 50% inhibition of cell population growth (IC50) was determined from dose-dependent curves.

[2] = tested on: Hep-2 (larynx carcinoma); experiment: MTT cell viability, Hep-2; format: cell-based; settings: Homo sapiens, 24 h
Text: as §1, §2, §3, §4

[3] = tested on: HeLa (cervical tumor); experiment: MTT cell viability, HeLa; format: cell-based; settings: Homo sapiens, 24 h
Text: as §1, §2, §3, §4

[4] = tested on: SH-SY5Y (neuroblastoma); experiment: MTT cell viability, SH-SY5Y; format: cell-based; settings: Homo sapiens, 24 h
Text: as §1, §2, §3, §4

[5] = tested on: Hek 293 (human embryonic kidneys); experiment: MTT cell viability, normal Hek 293; format: cell-based; settings: HEK293, 24 h
Text: as §1, §2, §3, §4

[6] = tested on: SH-SY5Y cells; experiment: Glycolysis flux assay (Seahorse ECAR); format: cell-based, human; settings: for glycolytic capacity (ECAR change relative to control): SH-SY5Y (Figure 3c); for decrease in ECAR: 100 µM, SH-SY5Y, kinetic curves (Figure 3d,e)
Description: The ability of compounds to suppress anaerobic glycolysis was studied using the Agilent Seahorse XF96e Analyzer (Seahorse Bioscience, Billerica, MA, USA) by the level of hydrogen proton production in the studied samples on cell lines of neuroblastoma SH-SY5Y [55].
The 30,000 SH-SY5Y cells per well were plated in an XF cell culture microplate (Seahorse Bioscience, Billerica, MA, USA). After plating cells, the microplate was kept overnight in a 37 °C, 5% CO2 incubator. On the following day the medium was aspirated, the cells washed and placed in serum-free, pyruvate-free and glucose-free medium (pH = 7.4). The microplate was kept for 45 min again in a 37° C, 5% CO2 incubator.
When SH-SY5Y cells were analyzed, we followed the procedure described in the Seahorse Glycolysis Stress Test kit. Briefly, initial extracellular acidification rate (ECAR) measurements were taken in the absence of glucose. […] This was followed by an injection of oligomycin from port C so that the final concentration of oligomycin in each well was […]. Lastly, a 25 mM final concentration of 2-deoxyglucose was injected from port D.
Data for each experimental condition derive from values obtained from a minimum of 5 separate wells.

[7] = tested on: all cell lines (SH-SY5Y, HeLa, Hep-2, A549, Hek 293); experiment: MTT cytotoxicity, summary over all cell lines; format: cell-based; settings: Homo sapiens; span over all cell lines
Text: as §1
Cell viability was determined by MTT test as described earlier. Cells were seeded in a 96-well plate in the amount of 1 × 10^4 cells/200 µL and cultured at 37 °C in a humidified CO2 atmosphere (5%) in a nutrient medium DMEM (PanEco, Moscow, Russia) and MEM (PanEco, Moscow, Russia). […]
Using a plate analyzer (Cytation3, BioTek Instruments Inc., Winooski, VT, USA), the optical density was determined at 530 nm. […]

[8] = tested on: HeLa (cervical tumor); settings: HeLa column; cited from earlier work

SMILES	IC50 [1]	IC50 [2]	IC50 [3]	IC50 [4]	IC50 [5]	glycolytic capacity (ECAR change relative to control) ([6]; 100 μM)	decrease in ECAR [6]	IC50 [7]	IC50 [8]	glycolysis (ECAR change relative to control) ([6]; 100 μM, SH-SY5Y (Figure 3b))
C=C1CC[C@H]2C(CNCc3cn(Cc4ccc(OC)cc4)nn3)C(=O)O[C@@H]2C2C(=C)CCC12 (some centres unmarked) [10b]	25.2 ± 3.44 µM	26.3 ± 0.38 µM	16.6 ± 0.59 µM	16.1 ± 0.46 µM	56.65 ± 0.05 µM	–	–	–	–	–
COc1ccc(Cn2cc(CNCC3C(=O)O[C@@H]4C[C@@]5(C)CCC[C@H](C)C5=C[C@H]34)nn2)cc1 (some centres unmarked) [11b]	70.3 ± 1.17 µM	> 100 µM	72.79 ± 0.07 µM	60.38 ± 0.39 µM	49.55 ± 0.33 µM	–	–	–	–	–
COc1ccc(COCc2cn(CCNC[C@H]3C(=O)O[C@@H]4C[C@@]5(C)CCC[C@H](C)C5=C[C@@H]43)nn2)cc1OC [7d, (3S,3aR,5S,8aR,9aR)-3-(((2-(4-(((3,4-Dimethoxybenzyl)oxy)methyl)-1H-1,2,3-triazol-1-yl)ethyl)amino)methyl)-5,8a-dimethyl-3,3a,6,7,8,8a,9,9a-octahydronaphtho [2,3-b]furan-2(5H)-one]	83.5 ± 1.09 µM	91 ± 2.85 µM	81 ± 3.17 µM	45.2 ± 1.24 µM	35.39 ± 0.29 µM	–	–	–	–	–
C=C1CCC2C(CNCCn3cc(COCc4ccc5c(c4)OCO5)nn3)C(=O)OC2C2C(=C)CCC12 [6a, (3R,3aS,9bS)-3-(((2-(4-((Benzo[d][1, 3]dioxol-5-ylmethoxy)methyl)-1H-1,2,3-triazol-1-yl)ethyl)amino)methyl)-6,9-dimethylenedecahydroazuleno [4,5-b]furan-2(9bH)-one]	85.65 ± 0.38 µM	88.1 ± 2.66 µM	62.4 ± 0.05 µM	37.35 ± 0.28 µM	57 ± 1.24 µM	reaching a minimum	more than 50%	–	–	–
C[C@H]1CCC[C@]2(C)C[C@H]3OC(=O)C(CNCCn4cc(COCc5ccc6c(c5)OCO6)nn4)[C@H]3C=C12 (some centres unmarked) [7a]	29.3 ± 1.37 µM	55.68 ± 0.52 µM	39 ± 1.27 µM	33.6 ± 1.27 µM	38.9 ± 1.23 µM	–	more than 50%	29 to 55 µM	–	–
C=C1C(=O)O[C@@H]2[C@H]3C(C)=CC[C@@]34O[C@@]4(C)CC[C@@H]12 [Arglabin, arglabin, reference compound]	–	29.9 ± 0.93 µM	–	34 ± 2.48 µM	78 ± 2.05 µM	–	–	–	20 µM	–
COc1ccc(COCc2cn(CCNC[C@H]3C(=O)O[C@@H]4C[C@@]5(C)CCC[C@H](C)C5=C[C@@H]43)nn2)cc1 [7b, (3S,3aR,5S,8aR,9aR)-3-(((2-(4-(((4-Methoxybenzyl)oxy)methyl)-1H-1,2,3-triazol-1-yl)ethyl)amino)methyl)-5,8a-dimethyl-3,3a,6,7,8,8a,9,9a-octahydronaphtho [2,3-b]furan-2(5H)-one]	47.3 ± 1.52 µM	67.16 ± 0.14 µM	55.1 ± 0.94 µM	41.7 ± 1.73 µM	42.3 ± 1.09 µM	–	–	–	–	–
COc1cccc(Cn2cc(CNCC3C(=O)O[C@@H]4C[C@@]5(C)CCC[C@H](C)C5=C[C@H]34)nn2)c1OC (some centres unmarked) [11c]	> 100 µM	> 100 µM	88.2 ± 1.27 µM	> 100 µM	67.91 ± 0.65 µM	–	–	–	–	–
COc1ccc(Cn2cc(CNCC3C(=O)O[C@@H]4C[C@@]5(C)CCC[C@H](C)C5=C[C@H]34)nn2)cc1OC (some centres unmarked) [11d]	91.2 ± 1.54 µM	> 100 µM	89.35 ± 0.4 µM	56.1 ± 1.06 µM	59.6 ± 1.84 µM	–	–	–	–	–
COc1cccc(COCc2cn(CCNC[C@H]3C(=O)O[C@@H]4C[C@@]5(C)CCC[C@H](C)C5=C[C@@H]43)nn2)c1OC [7c, (3S,3aR,5S,8aR,9aR)-3-(((2-(4-(((2,3-Dimethoxybenzyl)oxy)methyl)-1H-1,2,3-triazol-1-yl)ethyl)amino)methyl)-5,8a-dimethyl-3,3a,6,7,8,8a,9,9a-octahydronaphtho [2,3-b]furan-2(5H)-one]	53.11 ± 0.25 µM	62.6 ± 0.72 µM	46.6 ± 0.81 µM	40 ± 1.32 µM	46.25 ± 0.22 µM	–	–	–	–	–
C=C1CC[C@H]2C(CNCc3cn(Cc4cccc(OC)c4OC)nn3)C(=O)O[C@@H]2C2C(=C)CCC12 (some centres unmarked) [10c]	> 100 µM	> 100 µM	79.59 ± 0.33 µM	89.5 ± 2.57 µM	66.29 ± 0.08 µM	–	–	–	–	–
C=C1CC[C@H]2[C@H](CNCCn3cc(COCc4cccc(OC)c4OC)nn3)C(=O)O[C@@H]2C2C(=C)CCC12 (stereo partly drawn) [6c, (3R,3aS,9bS)-3-(((2-(4-(((2,3-Dimethoxybenzyl)oxy)methyl)-1H-1,2,3-triazol-1-yl)ethyl)amino)methyl)-6,9-dimethylenedecahydroazuleno [4,5-b]furan-2(9bH)-one]	> 100 µM	> 100 µM	82.4 ± 1.14 µM	94.9 ± 1.08 µM	59.8 ± 1.37 µM	–	–	–	–	–
C=C1CC[C@H]2C(CNCc3cn(Cc4ccc5c(c4)OCO5)nn3)C(=O)O[C@@H]2C2C(=C)CCC12 (some centres unmarked) [10a]	> 100 µM	> 100 µM	18 ± 0.32 µM	19.3 ± 0.57 µM	58.04 ± 0.07 µM	–	more than 50%	–	–	–
C[C@H]1CCC[C@]2(C)C[C@H]3OC(=O)C(CNCc4cn(Cc5ccc6c(c5)OCO6)nn4)[C@H]3C=C12 (some centres unmarked) [11a]	95.9 ± 1.5 µM	> 100 µM	88.86 ± 0.21 µM	71.8 ± 2 µM	61.43 ± 0.1 µM	reaching a minimum	more than 50%	–	–	–
C=C1CC[C@H]2[C@H](CNCCn3cc(COCc4ccc(OC)c(OC)c4)nn3)C(=O)O[C@@H]2C2C(=C)CCC12 (stereo partly drawn) [6d, (3R,3aS,9bS)-3-(((2-(4-(((3,4-Dimethoxybenzyl)oxy)methyl)-1H-1,2,3-triazol-1-yl)ethyl)amino)methyl)-6,9-dimethylenedecahydroazuleno [4,5-b]furan-2(9bH)-one]	> 100 µM	> 100 µM	> 100 µM	57.8 ± 1.71 µM	69.47 ± 0.54 µM	–	–	–	–	reaching a minimum
C=C1CC[C@H]2C(CNCc3cn(Cc4ccc(OC)c(OC)c4)nn3)C(=O)O[C@@H]2C2C(=C)CCC12 (some centres unmarked) [10d]	> 100 µM	82.2 ± 1.15 µM	26.4 ± 2.39 µM	21.83 ± 0.02 µM	> 100 µM	–	–	–	–	–
C=C1CC[C@H]2[C@H](CNCCn3cc(COCc4ccc(OC)cc4)nn3)C(=O)O[C@@H]2C2C(=C)CCC12 (stereo partly drawn) [6b, (3R,3aS,9bS)-3-(((2-(4-(((4-Methoxybenzyl)oxy)methyl)-1H-1,2,3-triazol-1-yl)ethyl)amino)methyl)-6,9-dimethylenedecahydroazuleno [4,5-b]furan-2(9bH)-one]	> 100 µM	> 100 µM	61.52 ± 0.12 µM	36.3 ± 2.38 µM	56.4 ± 1.03 µM	–	–	–	–	–
